Reference: the CheMixHub viscosity set

Test: xn = mol fraction of the nth substance listed

C1COCO1 + CCCCOCCO
298.15 K, 101 kPa
Conditions | viscosity [mPa·s]
x1 = 0.1506 | 2.2
x1 = 0.2851 | 1.773
x1 = 0.4061 | 1.465
x1 = 0.5154 | 1.229
x1 = 0.6147 | 1.053
x1 = 0.7053 | 0.9156
x1 = 0.7882 | 0.8012
x1 = 0.8645 | 0.7116
x1 = 0.9349 | 0.6419

C[N+](C)(C)CCO.O=C([O-])CCCC[C@@H]1SC[C@@H]2NC(=O)N[C@@H]21 + O
viscosity [mPa·s], 100 kPa
Conditions | x1 = 0.0009415 | x1 = 0.001329 | x1 = 0.001899 | x1 = 0.002797 | x1 = 0.003833 | x1 = 0.005474
293.15 K | 1.044 | 1.058 | 1.079 | 1.111 | 1.146 | 1.2
298.15 K | 0.927 | 0.939 | 0.957 | 0.984 | 1.014 | 1.06
303.15 K | 0.829 | 0.84 | 0.855 | 0.879 | 0.905 | 0.944
308.15 K | 0.747 | 0.756 | 0.77 | 0.79 | 0.812 | 0.846
313.15 K | 0.678 | 0.686 | 0.698 | 0.716 | 0.735 | 0.765

CCC(O)CC + Cc1ccccc1
viscosity [mPa·s], 101 kPa
Conditions | x1 = 0.1 | x1 = 0.1999 | x1 = 0.2999 | x1 = 0.4 | x1 = 0.4999 | x1 = 0.6 | x1 = 0.6999 | x1 = 0.8 | x1 = 0.9001
303.15 K | 0.5369 | 0.57 | 0.6172 | 0.6865 | 0.7794 | 0.9264 | 1.142 | 1.52 | 2.12
308.15 K | 0.5072 | 0.5352 | 0.5765 | 0.6364 | 0.7145 | 0.8369 | 1.015 | 1.313 | 1.767
313.15 K | 0.4793 | 0.5027 | 0.5395 | 0.5918 | 0.658 | 0.7604 | 0.9062 | 1.147 | 1.493
318.15 K | 0.4555 | 0.4739 | 0.5062 | 0.5515 | 0.6092 | 0.6951 | 0.8461 | 1.013 | 1.285
323.15 K | 0.433 | 0.4499 | 0.4765 | 0.5154 | 0.5649 | 0.6384 | 0.7404 | 0.9004 | 1.112

FCC(F)(F)F + OCCO
viscosity [mPa·s], 101.32 kPa
Conditions | x2 = 0.948 | x2 = 0.949 | x2 = 0.964 | x2 = 0.965 | x2 = 0.974 | x2 = 0.975
293.15 K | 16.9 | – | 17.1 | – | 17.9 | –
313.15 K | – | 7.76 | – | 7.91 | – | 7.86

ClC(Cl)C(Cl)(Cl)Cl + C1COCCO1
303.15 K, 101 kPa
Conditions | viscosity [mPa·s]
x2 = 0.0967 | 2.052
x2 = 0.1938 | 2.133
x2 = 0.2925 | 2.141
x2 = 0.3925 | 2.108
x2 = 0.4926 | 2.011
x2 = 0.5951 | 1.851
x2 = 0.6928 | 1.65
x2 = 0.795 | 1.463
x2 = 0.8962 | 1.289

CC(=O)c1ccccc1 + CC(=O)O
298.15 K, 101 kPa
Conditions | viscosity [mPa·s]
x2 = 0.0998 | 1.741
x2 = 0.2107 | 1.754
x2 = 0.2935 | 1.742
x2 = 0.4253 | 1.703
x2 = 0.4885 | 1.668
x2 = 0.6003 | 1.598
x2 = 0.6998 | 1.524
x2 = 0.8002 | 1.42
x2 = 0.9013 | 1.293

C[n+]1cc([O-])on1 + O
313.15 K, 101 kPa
Conditions | viscosity [mPa·s]
x2 = 0.1304 | 4.405
x2 = 0.2625 | 3.634
x2 = 0.4242 | 2.894
x2 = 0.6104 | 2.178
x2 = 0.7384 | 1.687
x2 = 0.882 | 1.121
x2 = 0.9089 | 1.015
x2 = 0.9709 | 0.775
x2 = 0.9746 | 0.768

CC(=O)c1ccccc1 + ClC(Cl)Cl
298.15 K, 101 kPa
Conditions | viscosity [mPa·s]
x1 = 0.0992 | 0.655
x1 = 0.337 | 0.915
x1 = 0.501 | 1.107
x1 = 0.7125 | 1.352
x1 = 0.8875 | 1.53

Cn1cc[n+](CC(O)CNCCN(CCNCC(O)C[n+]2ccn(C)c2)CC(O)C[n+]2ccn(C)c2)c1.[Cl-].[Cl-].[Cl-] (stereo not drawn) + O
101.33 kPa, x2 = 0.49
Conditions | viscosity [mPa·s]
298.15 K | 1956
308.15 K | 779.1
318.15 K | 370.5

C1COCO1 + CCO
303.15 K, 101 kPa
Conditions | viscosity [mPa·s]
x1 = 0.06463 | 0.898
x1 = 0.1346 | 0.838
x1 = 0.2104 | 0.7691
x1 = 0.2931 | 0.6852
x1 = 0.3834 | 0.6333
x1 = 0.4826 | 0.6121
x1 = 0.592 | 0.591
x1 = 0.7133 | 0.5886
x1 = 0.8484 | 0.569

CN(C)P(=O)(N(C)C)N(C)C + CC(C)O
303.15 K, 101.3 kPa
Conditions | viscosity [mPa·s]
x1 = 0.0867 | 1.855
x1 = 0.1008 | 1.87
x1 = 0.1839 | 1.937
x1 = 0.2608 | 1.991
x1 = 0.3481 | 2.075
x1 = 0.4017 | 2.136
x1 = 0.5056 | 2.279
x1 = 0.6052 | 2.407
x1 = 0.705 | 2.547
x1 = 0.7928 | 2.668
x1 = 0.8899 | 2.791

[Al+3].[Cl-].[Cl-].[Cl-] + CCCC(N)=O
viscosity [mPa·s], 101 kPa
Conditions | x1 = 0.5 | x1 = 0.52 | x1 = 0.57 | x1 = 0.6 | x1 = 0.63
313 K | 28.41 | 23.88 | 23.18 | 24.75 | 27.31
323 K | 20.42 | 17.69 | 17.62 | 17.72 | 19.85

O=C(O)[C@@H](O)[C@@H](O)C(=O)O + O
298 K, 101.3 kPa
Conditions | viscosity [mPa·s]
x1 = 0.000823 | 0.9012
x1 = 0.00165 | 0.9144
x1 = 0.003567 | 0.9399
x1 = 0.005454 | 0.9656
x1 = 0.006888 | 0.99
x1 = 0.00872 | 1.018
x1 = 0.01004 | 1.034
x1 = 0.01181 | 1.066
